According to PubChem BioAssay AID1919000 (Molecular Pharmacology Branch, DTP, NCI, 2023):
Values joined by “and” are separate entries in the source; they are usually repeats but may differ in a detail not shown here. Equal entries are not always repeated.

Tested on: 653999-131-R-J2-PDC complex spheroids, growth % test/control
Assay: Anticancer human tumor 653999-131-R-J2-PDC patient-derived lung adenocarcinoma cell line growth inhibition [AhR]
Settings: for viability, T/C: stronger effect = lower value
Summary of the method: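 Complex tumor spheroids co-cultured with HUVEC and human MSC stroma; AhR antagonists tested in combination with standard-of-care and investigational agents. Top concentration at or near clinical Cmax (else 10 microM), half-log dilutions; growth expressed as percent test/control.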

[1] = curve of first compound, second compound 0.1 µM
[2] = curve of first compound, second compound 0.316 µM
[3] = curve of first compound, second compound 1 µM
[4] = curve of first compound, second compound 3.16 µM
[5] = curve of first compound, second compound 10 µM
[6] = second compound 0.1 µM, first compound 0.0316 µM
[7] = second compound 0.1 µM, first compound 0.1 µM
[8] = second compound 0.1 µM, first compound 0.316 µM
[9] = second compound 0.1 µM, first compound 1 µM
[10] = second compound 0.1 µM, first compound 3.16 µM
[11] = second compound 0.1 µM, first compound 10 µM
[12] = second compound 0.316 µM, first compound 0.0316 µM
[13] = second compound 0.316 µM, first compound 0.1 µM
[14] = second compound 0.316 µM, first compound 0.316 µM
[15] = second compound 0.316 µM, first compound 1 µM
[16] = second compound 0.316 µM, first compound 3.16 µM
[17] = second compound 0.316 µM, first compound 10 µM
[18] = second compound 1 µM, first compound 0.0316 µM
[19] = second compound 1 µM, first compound 0.1 µM
[20] = second compound 1 µM, first compound 0.316 µM
[21] = second compound 1 µM, first compound 1 µM
[22] = second compound 1 µM, first compound 3.16 µM
[23] = second compound 1 µM, first compound 10 µM
[24] = second compound 3.16 µM, first compound 0.0316 µM
[25] = second compound 3.16 µM, first compound 0.1 µM
[26] = second compound 3.16 µM, first compound 0.316 µM
[27] = second compound 3.16 µM, first compound 1 µM
[28] = second compound 3.16 µM, first compound 3.16 µM
[29] = second compound 3.16 µM, first compound 10 µM
[30] = second compound 10 µM, first compound 0.0316 µM
[31] = second compound 10 µM, first compound 0.1 µM
[32] = second compound 10 µM, first compound 0.316 µM
[33] = second compound 10 µM, first compound 1 µM
[34] = second compound 10 µM, first compound 3.16 µM
[35] = second compound 10 µM, first compound 10 µM
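Also: spheroids exposed to agents for seven days.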
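For viability, T/C in this document: 100% = DMSO vehicle control viability.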

CC1COCCN1c1cc(-c2ccnn2C)c2ccnc(-c3ccn[nH]3)c2n1 (centres undefined)
viability, T/C (compound 0.00316 µM): 97.3% and 102% and 106% | viability, T/C (compound 0.01 µM): 92.7% and 98.5% and 104% | viability, T/C (compound 0.0316 µM): 77.3% and 77.9% and 90.3% | viability, T/C (compound 0.1 µM): 58.7% and 58.6% and 62.5% | viability, T/C (compound 0.316 µM): 32.9% and 34% and 41.3% | viability, T/C (compound 1 µM): 24% and 30.5% and 29.1% | IC50 (curve of compound): 141 nM and 142 nM and 194 nM

Nc1ccn(C2OC(CO)C(O)C2(F)F)c(=O)n1 (centres undefined) + Cc1ccccc1N=Nc1ccc(NC(=O)c2ccnn2C)c(C)c1
IC50 [1]: 532 nM | IC50 [2]: 371 nM | IC50 [3]: 940 nM | IC50 [4]: 454 nM | IC50 [5]: 2960 nM | viability, T/C [6]: 64.2% | viability, T/C [7]: 65% | viability, T/C [8]: 49.3% | viability, T/C [9]: 44.9% | viability, T/C [10]: 42.9% | viability, T/C [11]: 34.2% | viability, T/C [12]: 70.6% | viability, T/C [13]: 60.9% | viability, T/C [14]: 52.8% | viability, T/C [15]: 39.8% | viability, T/C [16]: 43.5% | viability, T/C [17]: 36.8% | viability, T/C [18]: 69.2% | viability, T/C [19]: 66.4% | viability, T/C [20]: 60.5% | viability, T/C [21]: 44.4% | viability, T/C [22]: 43.5% | viability, T/C [23]: 36% | viability, T/C [24]: 72.5% | viability, T/C [25]: 62.4% | viability, T/C [26]: 51.5% | viability, T/C [27]: 44.9% | viability, T/C [28]: 42.1% | viability, T/C [29]: 38.7% | viability, T/C [30]: 66.8% | viability, T/C [31]: 65.5% | viability, T/C [32]: 65.2% | viability, T/C [33]: 50.3% | viability, T/C [34]: 46.1% | viability, T/C [35]: 48.5%

CC1(C)CCC(CN2CCN(c3ccc(C(=O)NS(=O)(=O)c4ccc(NCC5CCOCC5)c([N+](=O)[O-])c4)c(Oc4cnc5[nH]ccc5c4)c3)CC2)=C(c2ccc(Cl)cc2)C1
viability, T/C (compound 0.0316 µM): 108% (2×) and 103% | viability, T/C (compound 0.1 µM): 97.3% and 103% and 116% | viability, T/C (compound 0.316 µM): 98% and 88.8% and 104% | viability, T/C (compound 1 µM): 105% and 102% and 104% | viability, T/C (compound 3.16 µM): 106% and 99.7% and 108% | viability, T/C (compound 10 µM): 85.9% and 58.9% and 74.9% | IC50 (curve of compound): > 10000 nM

CC1COCCN1c1cc(C2(S(C)(=N)=O)CC2)nc(-c2ccnc3[nH]ccc23)n1 (centres undefined) + Cc1ccccc1N=Nc1ccc(NC(=O)c2ccnn2C)c(C)c1
IC50 [1]: 8830 nM | IC50 [2]: 7290 nM | IC50 [3]: 8180 nM | IC50 [4]: 7120 nM | IC50 [5]: 6750 nM | viability, T/C [6]: 110% | viability, T/C [7]: 90.1% | viability, T/C [8]: 110% | viability, T/C [9]: 83.5% | viability, T/C [10]: 71.2% | viability, T/C [11]: 47.3% | viability, T/C [12]: 98.3% | viability, T/C [13]: 102% | viability, T/C [14]: 106% | viability, T/C [15]: 94.5% | viability, T/C [16]: 63% | viability, T/C [17]: 45.1% | viability, T/C [18]: 93.4% | viability, T/C [19]: 95.3% | viability, T/C [20]: 94.5% | viability, T/C [21]: 84% | viability, T/C [22]: 65.9% | viability, T/C [23]: 46.6% | viability, T/C [24]: 98% | viability, T/C [25]: 86% | viability, T/C [26]: 92.8% | viability, T/C [27]: 80.8% | viability, T/C [28]: 70.1% | viability, T/C [29]: 41.6% | viability, T/C [30]: 94.3% | viability, T/C [31]: 83% | viability, T/C [32]: 80.8% | viability, T/C [33]: 71.2% | viability, T/C [34]: 63.3% | viability, T/C [35]: 42.8%
